According to patent publication US20250295668A1, “METHODS FOR INDUCING COLANIC ACID BIOSYNTHESIS” (priority 2024, published 2025):

What was measured:
cps operon = assay: Disk diffusion assay for cps induction, SG20781 cpsB::lacZ reporter; format: cell-based, E. coli; conditions: SG20781, filter paper disks 10 or 100 μg, 24 hours at 37° C.
Procedure: For antibiotic screening targeting cps expression, the SG20781 strain (MC4100 lon+cpsB10::lacZ Mu-immλ) was used. The bacteria were cultured overnight at 37° C. in Luria-Broth (LB) medium and evenly plated on X-gal (40 μg/mL) supplemented LB agar plates, and incubated overnight.
E. coli strain SG20781 was used to assess antibiotic cps induction via disk diffusion as previously described [PMID: 14553918]. In brief, an overnight bacteria culture was spread onto LB agar containing 0.1 mg ml-1 5-bromo-4-chloro-3-indolyl-β-D-galactoside (X-gal). […] The soaked filter papers were placed onto the bacteria-seeding plates and incubated for 24 hours at 37° C.
Certain β-lactam antibiotics trigger the overexpression of the cps operon in E. coli [PMID: 14553918]. To validate this finding, a disk diffusion assay was performed using SG20781, an E. coli strain that harbors a LacZ reporter for the cps operon transcriptional regulation. Using a colorimetric assay, an increased level of […] reacts with X-gal, resulting in an intensified blue coloration as a result of the transcriptional up-regulation of the cps operon.

PBP4 = PBP4 (Escherichia coli, UniProt P24228); conditions: literature, PMID 25733506; cited from earlier work
wildtype E. coli = assay: Colanic acid measurement (fucose quantification) in wildtype E. coli culture medium; format: cell-based
Procedure: For colanic acid quantification, E. coli Keio mutants and the parental strain BW25113 were cultured overnight at 37° C. in M9 minimum medium [PMID: 28436966]. Bacteria were then removed by centrifugation and filtered for colanic acid measurement.
The desired bacterial strain was first inoculated and cultured in M9 minimum medium overnight at 37° C. to obtain the seeding culture. The OD 600 was measured, and the seeding bacteria were diluted to OD600=0.02 in M9 minimum medium for another 16 hours. After the incubation, bacterial cultures were collected in 50 mL tubes, spun down at 4,000 g at 4° C. for 30 min, filtered, and 25 mL of supernatant was collected per 50 ml conical tube. Ice-cold 100% ethanol (EtOH) was added to make a final 50% EtOH solution for precipitation, and the mixture was kept at 4° C. overnight. Once precipitation occurred, the liquid was carefully removed after centrifugation at 4,000 g at 4° C. for 50 min. The pellet was washed once with cold 80% EtOH and then air-dried in a hood. The pellet from every 50 mL culture was resuspended in 500 μL distilled H2O. The solution was sonicated for 60 minutes at 37° C., followed by centrifugation at 4000 g at 4° C. for 10 minutes. A 200 μL sample was mixed with 30 μL hydrochloric acid (320331-500 mL, Sigma-Aldrich) and boiled for 2 hours. Subsequently, 60 μL 5M NaOH and 150 μL NaHCO3/NaOH buffer were added to reach a pH of 6-8, calibrated by 1M HCl or NaOH solutions. The fucose quantification assay was then carried out using a K-FUCOSE kit (Megazyme) according to the manufacturer's protocol.
Next, colanic acid in the bacteria culture medium was quantified via monosaccharide-fucose-from acid-hydrolyzed polysaccharide precipitates. […] Calculations were performed to determine the equivalent dosage by weight in a mammalian subject. Briefly, a typical mouse consumes 5-10 ml of water per day and weighs between 30-40 g. Using the 1.8 μg/mL concentration, a lower bound of 0.225 mg/kg (0.0018 mg/mL×5 ml[…]0.04 kg) and a higher bound of 0.6 mg/kg (0.0018 mg/mL×10 ml÷0.03 kg) were identified. […] In wild-type bacteria treated with cephaloridine and Alon E. coli mutants colanic acid production increased during the exponential growth phase and remained elevated in the stationary phase (FIG. 1D).

SMILES	cps induction (blue coloration) (cps operon)	affinity for PBP4 (PBP4)	colanic acid production vs untreated wildtype control (wildtype E. coli; cephalothin 0.625 μg/mL) [fold]	colanic acid production vs untreated wildtype control (wildtype E. coli; penicillin G 5 μg/mL) [fold]
CC1(C)S[C@@H]2[C@H](NC(=O)[C@H](N)c3ccccc3)C(=O)N2[C@H]1C(=O)O [ampicillin]	promote various shades of blue coloration	higher affinity for PBP4		
CC1(C)S[C@@H]2[C@H](NC(=O)C(C(=O)O)c3ccccc3)C(=O)N2[C@H]1C(=O)O (stereo partly shown) [carbenicillin]	promote various shades of blue coloration			
Cc1nnc(SCC2=C(C(=O)O)N3C(=O)[C@@H](NC(=O)Cn4cnnn4)[C@H]3SC2)s1 [cefazolin]	promote various shades of blue coloration			
CO/N=C(\C(=O)N[C@@H]1C(=O)N2C(C(=O)O)=C(COC(N)=O)CS[C@H]12)c1ccco1 [cefuroxime]	promote various shades of blue coloration			
CC(=O)OCC1=C(C(=O)O)N2C(=O)[C@@H](NC(=O)Cc3cccs3)[C@H]2SC1 [cephalothin]	promote various shades of blue coloration		3.5	
CC1(C)S[C@@H]2[C@H](NC(=O)Cc3ccccc3)C(=O)N2[C@H]1C(=O)O [penicillin G]	promote various shades of blue coloration	higher affinity for PBP4		3.25
